The text below walks through data of ChEMBL document CHEMBL1125225, “Delineating the pharmacophoric elements of huperzine A: importance of the unsaturated three-carbon bridge to its AChE inhibitory activity” (J Med Chem, 1991).

By IC50 is commonly meant the midpoint of a concentration-inhibition curve.

The test deals with T1, Acetylcholinesterase (Rattus norvegicus, UniProt P37136).
T1 sequence (P37136 whole entry): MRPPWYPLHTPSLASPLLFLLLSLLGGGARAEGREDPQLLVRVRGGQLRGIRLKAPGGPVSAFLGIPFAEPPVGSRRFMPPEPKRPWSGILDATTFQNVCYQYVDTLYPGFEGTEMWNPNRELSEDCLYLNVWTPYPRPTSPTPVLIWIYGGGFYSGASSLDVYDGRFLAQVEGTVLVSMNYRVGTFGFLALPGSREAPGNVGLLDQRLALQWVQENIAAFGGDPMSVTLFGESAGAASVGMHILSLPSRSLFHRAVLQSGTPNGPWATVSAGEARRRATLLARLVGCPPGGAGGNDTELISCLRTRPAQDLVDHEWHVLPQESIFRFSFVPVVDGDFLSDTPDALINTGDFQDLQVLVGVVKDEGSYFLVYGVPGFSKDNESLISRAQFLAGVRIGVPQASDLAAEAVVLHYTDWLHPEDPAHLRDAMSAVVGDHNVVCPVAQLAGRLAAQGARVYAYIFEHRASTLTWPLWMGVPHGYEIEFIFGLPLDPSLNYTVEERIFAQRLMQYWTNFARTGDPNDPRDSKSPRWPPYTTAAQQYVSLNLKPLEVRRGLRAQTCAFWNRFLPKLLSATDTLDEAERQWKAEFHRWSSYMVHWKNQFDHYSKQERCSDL
Briefly: Compound was tested for its ability to inhibit the action of acetylcholinesterase isolated from rat brain cortex.

Turning to `C/C=C1\C2CCC[C@]1(N)c1ccc(O)nc1C2`, the half-maximal inhibitory concentration (IC50) is 9.82 µM. In the case of `C/C=C1\CCc2[nH]c(=O)ccc2[C@]1(C)N` it was 338 µM. Then `NCc1ccc(O)nc1`, with above 900 µM. On to `CN(C)Cc1ccc(=O)[nH]c1`, for which the half-maximal inhibitory concentration (IC50) is above 900 µM.
